# Assay results from patent US8343475B2, “Small cationic antimicrobial peptides” (priority 2006, dated 2013).
# Residues, ends and D or L forms follow the SMILES beside them.
# Assays:
# [1] = tested on: Pseudomonas aeruginosa PAO1 strain H103; assay type: cell-based; conditions: PAO1
# Procedure, shortened: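 Modified broth microdilution MIC in Mueller Hinton medium, peptides diluted in 0.01% acetic acid/0.2% BSA, polypropylene plates. Inoculum 2-7×10^5 CFU/ml, overnight at 37 °C; MIC is the lowest concentration with no visible growth.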
# [2] = tested on: Enterococcus faecalis ATCC29212; assay type: cell-based; conditions: ATCC29212
# Procedure, shortened: (§1)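 MIC by modified broth microdilution in Mueller Hinton medium. Peptides were diluted in 0.01% acetic acid with 0.2% BSA and added at 10× to inoculum of 2-7×10^5 CFU/ml, then incubated overnight at 37 °C. MIC is the lowest concentration with no visible growth.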
# [3] = tested on: Staphylococcus aureus ATCC25923; assay type: cell-based; conditions: ATCC25923
# Procedure, shortened: as §1
# [4] = tested on: clinical isolates of MRSA; assay type: cell-based, Staphylococcus aureus
# Protocol: (§2) Minimal inhibitory concentration (MIC) determination. The MIC of the peptides were measured using a modified broth microdilution method in Mueller Hinton (MH) medium (Wu M, Hancock R E W. 1999. Interaction of the cyclic antimicrobial cationic peptide bactenecin with the outer and cytoplasmic membrane. J Biol Chem 274, 29-35). Briefly, the peptides were dissolved and stored in glass vials. The assay was performed in sterile 96-well polypropylene microtitre plates were used. Serial dilutions of the peptides to be assayed were performed in 0.01% acetic acid (Fisher) containing 0.2% bovine serum albumin (Boehringer Mannheim GmbH) at 10× the desired final concentration. Ten microlitres of the 10× peptides were added to each well of a 96-well polypropylene plate containing 90 μl of MH media per well. Bacteria were added to the plate from an overnight culture at 2-7×10^5 colony forming units/ml and incubated over night at 37° C. The MIC was taken as the concentration at which no growth was observed.
# (§3) All peptides derived from the 1st, 2nd, and 3rd quartiles were further evaluated for their antibacterial activities against several highly antibitoic resistant pathogens (Table 3). These included clinical isolates of MRSA, ESBL E. cloacae, and multidrug resistant Pseudomonas strains including Brazilian clinical isolates of P. aeruginosa that are resistant to meropenem, ceftazidime, piperacillin/tazobactam, ciprofloxacin, cefepime and polymyxin B, and the Liverpool Epidemic Strains. […] Such results characterize the developed peptides as excellent antibiotic candidates, providing new means for treating most dangerous and severe forms of human infections.
# ESBL E. cloacae = assay type: cell-based, Enterobacter cloacae
# Protocol: as §2, §3
# [5] = tested on: Liverpool Epidemic Strains; assay type: cell-based, Pseudomonas aeruginosa
# Protocol: as §2, §3
# [6] = tested on: MCP-1 release by human PBMC; experiment: Chemokine induction in PBMC (capture ELISA); assay type: cell-based; conditions: background (204) subtracted
# Procedure, shortened: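 Heparinized blood from healthy volunteers; Ficoll-isolated human PBMC (7.5×10^5) treated with peptides at 20 or 100 μg/ml for 24 hours at 37° C, 5% CO2. Cell-free supernatants assayed for MCP-1 by capture ELISA.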
# [7] = tested on: MCP-3 release by human PBMC; experiment: Chemokine induction in PBMC (capture ELISA); assay type: cell-based; conditions: background (6) subtracted
# Procedure, shortened: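 Human PBMC from healthy donors (Ficoll-isolated), 7.5×10^5 cells at 0.75–1×10^6 cells/ml, treated with peptides at 20 or 100 μg/ml for 24 h at 37° C, 5% CO2. MCP-3 in cell-free supernatants measured by capture ELISA.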
# [8] = tested on: CXCL1 (Gro-α) release by human PBMC; experiment: Chemokine induction in PBMC (capture ELISA); assay type: cell-based; conditions: background (196) subtracted
# Procedure, shortened: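 Human PBMC from healthy donors' heparinised blood (Ficoll), 7.5×10^5 cells treated with 20 or 100 μg/ml peptide for 24 h at 37° C, 5% CO2. Cell-free supernatants assayed for CXCL1 by capture ELISA.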
# [9] = tested on: ESBL E. coli clinical strain 64771; assay type: cell-based; conditions: ESBL clinical strain 64771
# Protocol: as §2
# (§4) The selected peptides were synthesized and assayed against several major antibiotic-resistant pathogens. Initially, the peptides were screened against the laboratory strain of P. aeruginosa PAO1 to compare the results with the training data. […] The antibacterial activity in the form of minimal inhibitory concentration (MIC) of the other studied peptides was assessed in greater depth (Table 9) against many highly antibiotic resistanct pathogens.
# [10] = tested on: ESBL Klebsiella pneumonia clinical strain 63575; assay type: cell-based
# Protocol: as §2, §4
# [11] = tested on: multidrug resistant Pseudomonas maltophilia ATCC13637; assay type: cell-based
# Protocol: as §2, §4
MIC against P. aeruginosa PAO1 [1],MIC [2],MIC [3],MIC [4],MIC (ESBL E. cloacae),MIC [5],MIC [9],MIC [10],MIC [11],SMILES,Chemokine induction MCP-1 ([6]; 20 μg/ml peptide),Chemokine induction MCP-1 ([6]; 100 μg/ml peptide),Chemokine induction MCP-3 ([7]; 20 μg/ml peptide),Chemokine induction MCP-3 ([7]; 100 μg/ml peptide),Chemokine induction Gro-α ([8]; 20 μg/ml peptide),Chemokine induction Gro-α ([8]; 100 μg/ml peptide)
4 to 12 µM,12 µM,6 µM,6 µM,12 µM,3 µM,12 µM,49 µM,0.8 µM,"CC[C@H](C)[C@H](NC(=O)[C@H](Cc1ccccc1)NC(=O)[C@H](CCCCN)NC(=O)[C@H](Cc1ccccc1)NC(=O)[C@H](CCCNC(=N)N)NC(=O)[C@@H](N)CCCNC(=N)N)C(=O)N[C@@H](CCCNC(=N)N)C(=O)N[C@@H](Cc1c[nH]c2ccccc12)C(=O)N[C@@H](Cc1c[nH]c2ccccc12)C(N)=O [HHC100, RRFKFIRWW] (H-RRFKFIRWW-NH2; N-terminus assumed)",179 pg/mL,197 pg/mL,-1 pg/mL,0 pg/mL,-18 pg/mL,-43 pg/mL
4 to 12 µM,24 µM,3 µM,3 µM,6 µM,6 µM,6 µM,12 µM,1.5 µM,"CC[C@H](C)[C@H](N)C(=O)N[C@@H](Cc1c[nH]c2ccccc12)C(=O)N[C@@H](Cc1c[nH]c2ccccc12)C(=O)N[C@@H](CCCCN)C(=O)N[C@@H](Cc1c[nH]c2ccccc12)C(=O)N[C@@H](CCCNC(=N)N)C(=O)N[C@@H](CCCNC(=N)N)C(=O)N[C@@H](Cc1c[nH]c2ccccc12)C(=O)N[C@H](C(N)=O)C(C)C [HHC77, IWWKWRRWV] (H-IWWKWRRWV-NH2; N-terminus assumed)",98 pg/mL,4548 pg/mL,0 pg/mL,23 pg/mL,-22 pg/mL,50 pg/mL
4 to 12 µM,6 µM,31 µM,3 µM,3 µM,1.5 µM,1.5 µM,3.1 µM,1.5 µM,"CC[C@H](C)[C@H](NC(=O)[C@H](Cc1c[nH]c2ccccc12)NC(=O)[C@H](CCCCN)NC(=O)[C@@H](N)CCCNC(=N)N)C(=O)N[C@@H](Cc1c[nH]c2ccccc12)C(=O)N[C@@H](CCCNC(=N)N)C(=O)N[C@@H](Cc1c[nH]c2ccccc12)C(=O)N[C@@H](Cc1ccccc1)C(=O)N[C@@H](CC(C)C)C(N)=O [HHC75, RKWIWRWFL] (H-RKWIWRWFL-NH2; N-terminus assumed)",1313 pg/mL,6140 pg/mL,34 pg/mL,322 pg/mL,554 pg/mL,1683 pg/mL

# Further lines, the molecule ahead of its results:
SMILES,MIC against P. aeruginosa PAO1 [1],MIC [2],MIC [3],MIC [4],MIC (ESBL E. cloacae),MIC [5],MIC [9],MIC [10],MIC [11],Chemokine induction MCP-1 ([6]; 20 μg/ml peptide),Chemokine induction MCP-1 ([6]; 100 μg/ml peptide),Chemokine induction MCP-3 ([7]; 20 μg/ml peptide),Chemokine induction MCP-3 ([7]; 100 μg/ml peptide),Chemokine induction Gro-α ([8]; 20 μg/ml peptide),Chemokine induction Gro-α ([8]; 100 μg/ml peptide)
"CC[C@H](C)[C@H](NC(=O)[C@H](Cc1c[nH]c2ccccc12)NC(=O)[C@@H](NC(=O)[C@H](Cc1c[nH]c2ccccc12)NC(=O)[C@H](CCCNC(=N)N)NC(=O)[C@H](CCCCN)NC(=O)[C@@H](N)CCCCN)C(C)C)C(=O)N[C@@H](CCCNC(=N)N)C(=O)N[C@@H](Cc1ccc(O)cc1)C(N)=O [HHC69, KKRWVWIRY] (H-KKRWVWIRY-NH2; N-terminus assumed)",4 to 12 µM,25 µM,13 µM,13 µM,25 µM,3 µM,13 µM,51 µM,1.6 µM,440 pg/mL,245 pg/mL,1 pg/mL,0 pg/mL,17 pg/mL,-3 pg/mL
"CC[C@H](C)[C@H](NC(=O)[C@@H](N)CCCCN)C(=O)N[C@@H](Cc1c[nH]c2ccccc12)C(=O)N[C@@H](Cc1c[nH]c2ccccc12)C(=O)N[C@@H](Cc1c[nH]c2ccccc12)C(=O)N[C@@H](Cc1c[nH]c2ccccc12)C(=O)N[C@@H](CCCNC(=N)N)C(=O)N[C@@H](CCCCN)C(=O)N[C@@H](CCCNC(=N)N)C(N)=O [HHC8, KIWWWWRKR] (H-KIWWWWRKR-NH2; N-terminus assumed)",–,24 µM,6 µM,6 µM,94 µM,5.9 µM,6 µM,47 µM,3 µM,68 pg/mL,835 pg/mL,1 pg/mL,4 pg/mL,9 pg/mL,-11 pg/mL
"CC[C@H](C)[C@H](NC(=O)[C@H](CCCNC(=N)N)NC(=O)[C@H](CCCCN)NC(=O)[C@@H](NC(=O)[C@H](Cc1c[nH]c2ccccc12)NC(=O)[C@H](Cc1c[nH]c2ccccc12)NC(=O)[C@H](Cc1c[nH]c2ccccc12)NC(=O)[C@H](CCCNC(=N)N)NC(=O)[C@@H](N)CC(C)C)[C@@H](C)CC)C(N)=O [HHC57, LRWWWIKRI] (H-LRWWWIKRI-NH2; N-terminus assumed)",4 to 12 µM,13 µM,6 µM,63 µM,50 µM,6 µM,13 µM,50 µM,3 µM,146 pg/mL,1364 pg/mL,0 pg/mL,9 pg/mL,21 pg/mL,18 pg/mL
